Several values for one entry are separate records, joined by “and”; a condition that tells them apart may be missing. Equal entries are not always repeated.

Here are results for one compound from patent US5147856A, “Method for inhibiting blood vessel blockage using octapeptide compositions” (Societe de Conseils de Recherches et d'Applications …, priority 1988, dated 1992).

Assay [1] deals with hyperplasia of the right carotid artery. The assay can be described thus: Air-drying injury of the rat right carotid artery, ratio of width of intimal and medial layers (Example 4). Type of assay: in vivo. The settings on record: 50 μg/kg/day s.c. twice a day. The procedure: Angiopeptin was administered s.c. twice a day 50 μg/kg/day to male Sprague-Dawley (Charles River) rats, 250-350 g each. After two days of pre-treatment, a lesion was made on the third day after the morning dose by air-drying the right carotid artery while the rats were under anesthesia (Ketamine-Innovar, i.m.). Treatment was continued on day: 4, 5, 6, and 7. The rats were sacrificed on day 14 following the injury. After in-situ fixation at constant pressure, with 10% formalin, the tissues were prepared to form morphometrics.
Hyperplasia was measured as the ratio of width of intimal and medial layers. For each rat, 3 different histological sections were measured and the morphometrics was done 3 times on each section.

The test system of assay [2] is myointimal proliferation of the carotid artery. As to the kind of experiment: Air-drying injury of the rat carotid artery, intimal/media ratio (Example 2). Particulars: for Intimal/Media Ratio: mean ± SE. The assay is classed as in vivo. The procedure:
Male Sprague-Dawley rats, weighing […], obtained from Charles River were kept under controlled lighting conditions and fed rat chow and water ad libitum. Under sodium pentobarbital anesthesia the intima of the right carotid artery was subjected to an air-drying injury described by Fishman et al, Lab Invest., 32, 339 (1975). The procedure causes intimal hyperplasia that largely consists of proliferating intimal smooth muscle cells. In this model approximately 4 cm of the vessel is isolated and drained of blood. Air (20 ml/min) is blown through a 30 gauge needle for 5 min whereafter blood flow is reestablished. The contralateral carotid artery was also exposed but not air-dried. The rats were sacrificed 15 days later.
The experiment consisted of a control group and ten treatment groups. The somatostatin analogs used were hepta- or octapeptides, namely BIM 23014 (Angiopeptin), BIM 23012, BIM 23027, BIM 23030 and BIM 23034. […] The animals were pretreated two days prior to the procedure and for a further five days following the endothelial injury. Two additional groups of animals were added in order to study whether Angiopeptin (20 μg/kg/day and 50 μg/kg/day) administered 30 min prior to the endothelial injury and for a further five days would protect against the myointimal proliferation.
The animals were sacrificed on day 15 following the injury by exsanguination. The vascular system was flushed with normal saline and perfusion-fixed at 80 mmHg with 10% formalin. The carotid arteries were subsequently fixed, embedded and sectioned for light microscopy and morphometric analysis. The maximal intimal/media ratio is the distance from the lumen to the internal elastic lamina and the distance from the internal elastic lamina to the external elastic lamina. The distances were determined in each vessel using a digitizing system attached to a light microscope. The determinations were performed on three different cross sections of the vessel and each section was measured three times. The mean was calculated for each vessel. Differences between the groups were evaluated using Student's unpaired t-test.

Assay [3] has as its system smooth muscle cell proliferation in the aorta and femoral arteries. The assay can be described thus: Primate balloon catheter injury of aorta and femoral arteries (Example 5). The settings on record: aorta and left and right femoral arteries; i.m. slow release system, 50 μg/kg/day; one treated primate vs one control; five weeks. The assay is classed as in vivo, cynomologous macaque. The procedure: In order to obtain a primate coronary angioplasty model which would be suited for evaluation of Angiopeptin, a feasibility study was performed on primates which were made available from the colony at Bowman-Gray Medical School, Winston-Salem, North Carolina. These animals were culled from the colony due to failure of the primates to satisfactorily elevate blood lipids when administered a high cholesterol diet. Young male cynomologous macaques weighing approximately 3.5 kg were used after an equilibration period of more than a week in a primate facility.
The animals were sedated with Ketamine and maintained with 1% halothane in oxygen. The aorta and femoral arteries were injured by a balloon catheter (USCI, Band). After five weeks the primates were anesthetized and sacrificed. The aorta and femoral arteries were removed and fixed in formaldehyde for morphometric analysis. […]
The maximal intimal/media ratio (distance from lumen to internal elastic lamina/distance from internal elastic lamina to external elastic lamina) was determined in each vessel using a digitizing system attached to a light microscope. The determinations were done on three different cross sections of the vessel and each section was measured three times and each three measurements were averaged.

Assay [4] relates to growth hormone release. Particulars: cited from earlier work.
In assay [5] the test system is intimal hyperplasia of aorta and iliac arteries. The assay can be described thus: Myointimal hyperplasia in rabbits after balloon angioplasty (Example 3). The assay is classed as in vivo, rabbit. The settings on record: for % Intimal hyperplasia: 20 μg/kg twice daily s.c., individual samples; for Percentage of inhibition of myointimal hyperplasia: 20 μg/kg/d. The procedure:
Female and Male, white New Zealand rabbits (2.8-3.0 kg) were divided into two groups (A and B). Group A (vehicle control) received subcutaneous injections of physiological saline (0.2 ml) twice daily. […] The animals were treated the day before angioplasty, and until sacrifice about 3 weeks later. The angioplasty was done under general anesthesia with Ketamine and Xylazine. Each animal's left iliac artery and aorta were denuded with an angioplasty catheter (Fogarty). The angioplasty catheter was inserted into the left femoral artery and passed through the vessel to the thoracic aorta. The catheter was then reciprocated three times. The animals were all sacrificed from days 22-24 after angioplasty. The aorta and iliac arteries were fixed in situ via perfusion with formaldehyde under constant perfusion pressure.
Intimal hyperplasia was determined on elastin-stained (Van Giesen) horizontally-cut sections. The sections were obtained from (i) the aorta at the level of the renal artery, (ii) the common iliac artery at the level of bifurcation, and (iii) the external iliac artery just above the inguinal ligament. The area of intimal hyperplasia and total vessel area were determined by morphometry. The percentage of intimal hyperplasia was expressed as follows: [formula]
Single determinations were made on three segments of each aorta and the two iliac arteries of each animal. The percentage of intimal hyperplasia was determined as the mean of the two closest measurements of each vessel.

Setting [6] is: common iliac artery, female rabbits.
Where [7] appears, read: common iliac artery, male rabbits.
The mark [8] stands for this setting: external iliac artery, female rabbits.

In the case of `CC(C)[C@@H]1NC(=O)[C@H](CCCCN)NC(=O)[C@@H](Cc2c[nH]c3ccccc23)NC(=O)[C@H](Cc2ccc(O)cc2)NC(=O)[C@@H](NC(=O)[C@H](N)Cc2ccc3ccccc3c2)CSSC[C@@H](C(=O)N[C@H](C(N)=O)[C@@H](C)O)NC1=O` [Angiopeptin, D-Nal-Cys-Tyr-D-Trp-Lys-Val-Cys-Thr-NH2], the “Hyperplasia: ratio of width of intimal and medial layers” value in assay [1] (two days pre-treatment and days 4-7, sacrifice day 14, individual rats) was 0.46 ± 0.08 and 0.28 ± 0.03 and 0.52 ± 0.05 and 0.69 ± 0.02. Moreover, in assay [1] (group mean, N 4), the “Hyperplasia: ratio of width of intimal and medial layers, mean” value worked out at 0.48. For the same compound, the “Intimal/Media Ratio” value is given as 1.7 ± 0.2 in assay [2] (20 μg/kg/day s.c. in two divided doses, from two days prior to injury and five days postinjury, sacrifice day 15); 1.6 ± 0.9 in assay [2] (20 μg/kg/day, pretreatment 30 min prior to injury and for a further five days); 1.1 ± 0.2 in assay [2] (50 μg/kg/day s.c. in two divided doses, from two days prior to injury and five days postinjury, sacrifice day 15); 1.0 ± 0.3 in assay [2] (50 μg/kg/day, pretreatment 30 min prior to injury and for a further five days). Besides, the “Inhibition of myointimal proliferation, in words” value in assay [2] (50 μg/kg/day from 30 min prior to injury and for a further five days) is reported as “significantly (p<0.01) inhibited”; in assay [2] (high dose 50 μg/kg/day, from two days prior to injury), “effective”; in assay [2] (low dose 20 μg/kg/day, from two days prior to injury), “effective”. The “Inhibition of myointimal (smooth muscle cell) proliferation of the carotid artery, in words” value in assay [2] (administered from two days prior to injury, at the doses used (20 and 50 μg/kg/day)) was “inhibited significantly”. Besides, the “Inhibition of smooth muscle cell proliferation, in words” value in assay [3] was “nearly complete inhibition”. Further, the “Inhibition of growth hormone release, in words” value in assay [4] (in vivo) is recorded as “less active”. In addition, the “Potency for growth hormone suppression in vivo, relative to somatostatin 14” value in assay [4] (rats, compared to somatostatin 14 (=1)) is reported as 5. For the same compound, the “% Intimal hyperplasia” value was 13.0% and 6.4% in assay [5] (aorta, female rabbits); 17.0% in assay [5] (aorta, male rabbits); 9.3% and 9.5% and 7.7% and 6.5% in assay [5] (setting [6]); 16.0% and 6.4% and 14.0% in assay [5] (setting [7]); 6.6% in assay [5] (setting [8]). Besides, the “Percentage of inhibition of myointimal hyperplasia” value in assay [5] (aorta, female rabbits) is recorded as about 43%; in assay [5] (aorta, male rabbits), about 32%; in assay [5] (setting [6]) it was about 33%; in assay [5] (setting [7]), about 39%; in assay [5] (setting [8]), “about 41%”; in assay [5] (external iliac artery, male rabbits) it was about 20%.
